Key:
[1] = system: HCT116 cells (Securin+/+, securin parental cell line HCT116 FB); assay: Growth inhibition of securin parental cells (SRB, 5 days); assay type: cell-based; conditions: Homo sapiens, HCT-116, 120 h
Protocol: (§1) IC50 analysis was performed for selected fused heterobicyclic 2-aryl or 2-heteroarylthiazolyl compounds that were tested on HCT116 cells and Securin “knock out” cell lines.
(§2) Cell Culture—HCT116 and securin “knock out” cells. HCT116 and securin “knock out” cells (D8 and F3) were grown in RPMI+5% fetal bovine serum and gentamycin. They were maintained in a humidified 37° C. incubator with 5% CO2. Since the securin “knock out” cells have active chromosomal instability, cells were used at a low passage number of 2-13 passages. At or before passage 13 a new vial of cells was thawed and used for the screen. Cell seeding—HCT116 cells and securin “knock out” cells were trypsinized and suspenended in RPMI+5% FBS at a density of 27,000 cells/mL. HCT116 and securin “knock out” cells were seeded separately in wells of a 96-well plate (Falcon Cat # 35-3872) at a cell density of 4000 cells per well. Cells were seeded in 150 μL of RPMI media containing 5% FBS and gentamycin. Cell seeding was performed under aseptic conditions. Cells were allowed to attach and grow overnight in a humidified 37° C. incubator.
(§3) Compound Dilution and Dispensation. A series of stock solutions, 10 mg/ml of 2-aryl- or 2-heteroarylthiazolyl compounds to be tested, were brought to room temperature. The compounds were diluted 1:50 in RPMI+5% FBS (Highest concentration 200 μg/mL). The compounds were then serially diluted 1:3 across a deep-well titration plate resulting in final concentrations in the plate of 200, 66.7, 22.2, 7.4, 2.4, 0.8 0.27, 0.091, 0.03, 0.01, and 0.0034 μg/mL with one well left without a compound. 50 μL of this dilution series was added to the 150 μL of cells to result in a final concentration of compound in with the cells of 50, 16.6, 5.5, 1.8, 0.6, 0.2, 0.068, 0.023, 0.0076, 0.0025, and 0.00084 μg/mL. The dilution and addition of compounds to the plates is performed using a Multimek 96 Robot (Beckman Coulter).
(§4) Incubation and analysis. After dosing, the cells in the 96 well plates were returned to the humidified 37° C. incubator. The compounds remained on the cells for 5 days. After 5 days, the cells were fixed to the plates with the addition of 50 μL of 50% (vol/vol) Trichloro Acetic Acid ([…]). The cells were fixed at 4° C. for 1 hour. The plates were washed 5 times in distilled water and allowed to dry. The cells were stained with 0.4% sulforhodamine B (Sigma) in 1% acetic acid. The cells were stained for 15 minutes at room temperature. The plates were then washed 3 times in 1% acetic acid. The plates were dried and the dye was solubilized in 10 mM Tris at pH 8.0. The plates were read on the Absorbence 560 setting on a Victor^2 V Model 1420 Multilabel HTS counter (Perkin Elmer).
(§5) Analysis of Results—IC50 data. Absorbence data was read off of the Victor and was converted to a percentage of the control (untreated) values. IC50 values were graphed and the point at which a 50% inhibition of the control level was determined. […] If the model was not able to determine an IC50, the IC50 was assigned to the lowest concentration that gives a 50% or greater decrease in absorbence compared to control levels. If the calculated IC50 value for a cell line exceeds the top concentration for the assay (typically 50 μg/mL), the assay was scored as >50.

[2] = system: securin "knock out" cells D8 (Securin−/−); assay: Growth inhibition of securin knock out cells D8 (SRB, 5 days); assay type: cell-based; conditions: for IC50: 120 h, securin knock out D8 cells, 5 days, SRB; for Selectivity Ratio D8: IC50 HCT116 / IC50 securin KO D8
Protocol: as §1, §2, §3, §4, §5
(§6) Selectivity Ratio. The Selectivity Ratio is the ratio of IC50s between the parent cell line and the knock out cell line and is always a positive number and is typically an integer.

[3] = system: securin "knock out" cells F3 (Securin−/−); assay: Growth inhibition of securin knock out cells F3 (SRB, 5 days); assay type: cell-based; conditions: for IC50: 120 h, securin knock out F3 cells, 5 days, SRB; for Selectivity Ratio F3: IC50 HCT116 / IC50 securin KO F3
Protocol: as §1, §2, §3, §4, §5, §6

[4] = system: xenografts of a human breast carcinoma cell line (MDA-MB-361); assay: In-vivo activity in tumor xenografts
Protocol: Selected fused heterobicyclic 2-aryl- or 2-heteroarylthiazolyl compounds of formula I were tested for their activity in a securin parental cell line (HCT116 FB) and a securin knockout (KO) cell line. […] The in-vivo activity of selected fused heterobicyclic 2-arylarylthiazolyl compounds of formula I was studied in cells growing as xenografts in athymic (nude) mice. The effect of Examples 5-7 and 10 was studied in xenografts of a human breast carcinoma cell line (MDA-MB-361).
In-vivo Activity in Tumor Xenografts. The effectiveness of Examples 5-7 versus Vincristine at controlling tumor growth was studied and the results are summarized in Table 2 and FIG. 1. The 2-arylthiazolyl compounds were formulated 0.5% Methocel™ (methylcellulose) and 0.4% Tween 80™ (polysorbate-80 and oleic acid) and administered daily orally (PO), by gavage or intraperiotenially (IP) by syringe. Tumor mass [(length×width^2)/2] was determined every 7 days. Inhibition of tumor growth was calculated relative to conventional (vehicle treated) controls.

[5] = 0.8 mg/kg/dose IP, days 1, 5 and 9
[6] = 20 mg/kg/dose PO, days 1 through 20
[7] = 50 mg/kg/dose PO, days 1 through 20

O=[N+]([O-])c1cc(N2CCCC2)ccc1-c1nc2c(s1)C(O)CNC2 (centres unmarked) [Example 15, 2-(2-nitro-4-pyrrolidin-1-yl-phenyl)-4,5,6,7-tetrahydro[1,3]thiazolo[4,5-c]pyridin-7-ol]
IC50 [1]: 28.4 µM | IC50 [2]: 2.95 µM | Selectivity Ratio D8 [2]: 10 | IC50 [3]: 4.6 µM | Selectivity Ratio F3 [3]: 6

CC[C@]1(O)C[C@H]2CN(CCc3c([nH]c4ccccc34)[C@@](C(=O)OC)(c3cc4c(cc3OC)N(C=O)[C@H]3[C@@](O)(C(=O)OC)[C@H](OC(C)=O)[C@]5(CC)C=CCN6CC[C@]43[C@@H]65)C2)C1 [Vincristine, reference compound]
% T/C Day 7 [4, 5]: 80% | Relative Tumor Growth Day 7 [4, 5]: 1.33 | % T/C Day 14 [4, 5]: 43% | Relative Tumor Growth Day 14 [4, 5]: 2.14 | % T/C Day 21 [4, 5]: 58% | Relative Tumor Growth Day 21 [4, 5]: 5.29

CN(C)c1ccc(-c2nc3c(s2)C(O)CNC3)c(CO)c1 (centres unmarked) [Example 8, 2-(2-hydroxymethyl-4-dimethylamino-phenyl)-4,5,6,7-tetrahydro[1,3]thiazolo[4,5-c]pyridine-7-ol]
IC50 [1]: 100 µM | IC50 [2]: 0.0989 µM | Selectivity Ratio D8 [2]: 1011 | IC50 [3]: 0.107 µM | Selectivity Ratio F3 [3]: 936

OC1CCCc2nc(-c3ccc(N4CCCC4)cc3)sc21 (centres unmarked) [2-(4-pyrrolidiny-1-ylphenyl)-4,5,6,7-tetrahydro-1,3-benzothiazol-7-ol, reference compound]
S/T = # of Survivors/# of Treated on Day +21 post tumor staging [4, 6]: 10/10 | % T/C Day 7 [4, 6]: 101% | Relative Tumor Growth Day 7 [4, 6]: 1.67 | % T/C Day 14 [4, 6]: 109% | Relative Tumor Growth Day 14 [4, 6]: 5.48 | % T/C Day 21 [4, 6]: 132% | Relative Tumor Growth Day 21 [4, 6]: 12.07 | S/T = # of Survivors/# of Treated on Day +21 post tumor staging [4, 7]: 10/10 | % T/C Day 7 [4, 7]: 95% | Relative Tumor Growth Day 7 [4, 7]: 1.57 | % T/C Day 14 [4, 7]: 78% | Relative Tumor Growth Day 14 [4, 7]: 3.93 | % T/C Day 21 [4, 7]: 95% | Relative Tumor Growth Day 21 [4, 7]: 8.73

CN(C)c1ccc(-c2nc3c(s2)C(O)COC3)cc1Br (centres unmarked) [Example 16, 2-[3-bromo-4-(dimethylamino)phenyl]-6,7-dihydro-4H-pyrano[3,4-d][1,3]thiazol-7-ol]
IC50 [1]: 41.6 µM | IC50 [2]: 14.3 µM | Selectivity Ratio D8 [2]: 3 | IC50 [3]: 15.2 µM | Selectivity Ratio F3 [3]: 3

COC(=O)c1cc(N(C)C)ccc1-c1nc2c(s1)C(O)CNC2 (centres unmarked) [Example 9, methyl 5-(dimethylamino)-2-(7-hydroxy-4,5,6,7-tetrahydro[1,3]thiazolo[4,5-c]pyridin-2-yl)benzoate]
IC50 [1]: 100 µM | IC50 [2]: 0.53 µM | Selectivity Ratio D8 [2]: 189 | IC50 [3]: 0.67 µM | Selectivity Ratio F3 [3]: 149

Nc1cc(N2CCCC2)ccc1-c1nc2c(s1)C(O)CNC2 (centres unmarked) [Example 14, 2-(2-amino-4-pyrrolidin-1-yl-phenyl)-4,5,6,7-tetrahydro[1,3]thiazolo[4,5-c]pyridin-7-ol]
IC50 [1]: 48.1 µM | IC50 [2]: 0.0379 µM | Selectivity Ratio D8 [2]: 1269 | IC50 [3]: 0.0486 µM | Selectivity Ratio F3 [3]: 990

CN1Cc2nc(-c3ccc(N(C)C)cc3)sc2C(O)C1 (centres unmarked) [Example 1, 2-(4-dimethylamino-phenyl)-5-methyl-4,5,6,7-tetrahydro[1,3]thiazolo[4,5-c]pyridine-7-ol]
IC50 [1]: 23.9 µM | IC50 [2]: 2.48 µM | Selectivity Ratio D8 [2]: 10 | IC50 [3]: 3.07 µM | Selectivity Ratio F3 [3]: 8

COC(=O)c1cc(N2CCCC2)ccc1-c1nc2c(s1)C(O)CNC2 (centres unmarked) [Example 13, Methyl 5-(4-pyrrolidin-1-yl)-2-(7-hydroxy-4,5,6,7-tetrahydro[1,3]thiazolo[4,5-c]pyridin-2-yl)benzoate]
IC50 [1]: 59.2 µM | IC50 [2]: 0.342 µM | Selectivity Ratio D8 [2]: 173 | IC50 [3]: 0.516 µM | Selectivity Ratio F3 [3]: 115

OCc1cc(N2CCCC2)ccc1-c1nc2c(s1)[C@H](O)CNC2 [Example 11, (7R)-2-(2-hydroxymethyl-4-pyrrolidin-1-yl-phenyl)-4,5,6,7-tetrahydro[1,3]thiazolo[4,5-c]pyridin-7-ol]
IC50 [1]: 91.4 µM | IC50 [2]: 0.0406 µM | Selectivity Ratio D8 [2]: 2251 | IC50 [3]: 0.0483 µM | Selectivity Ratio F3 [3]: 1892

CN(C)c1ccc(-c2nc3c(s2)[C@@H](O)CNC3)cc1 [Example 4, (S)-2-(4-dimethylamino-phenyl)-4,5,6,7-tetrahydro[1,3]thiazolo[4,5-c]pyridin-7-ol]
IC50 [1]: 169 µM | IC50 [2]: 2.19 µM | Selectivity Ratio D8 [2]: 77 | IC50 [3]: 3.39 µM | Selectivity Ratio F3 [3]: 50

CN(C)c1ccc(-c2nc3c(s2)[C@H](O)CNC3)cc1 [Example 3, (R)-2-(4-dimethylamino-phenyl)-4,5,6,7-tetrahydro[1,3]thiazolo[4,5-c]pyridin-7-ol]
IC50 [1]: 66.4 µM | IC50 [2]: 0.395 µM | Selectivity Ratio D8 [2]: 168 | IC50 [3]: 0.555 µM | Selectivity Ratio F3 [3]: 120

OCc1cc(N2CCCC2)ccc1-c1nc2c(s1)C(O)CNC2 (racemic) [Example 10, (7R,7S)-2-(2-hydroxymethyl-4-pyrrolidin-1-yl-phenyl)-4,5,6,7-tetrahydro[1,3]thiazolo[4,5-c]pyridin-7-ol]
IC50 [1]: 80.6 µM | selectivity ratio (IC50 HCT116 FB/IC50 securin KO), in words [2]: high selectivity ratio | IC50 [2]: 0.0808 µM | Selectivity Ratio D8 [2]: 998 | IC50 [3]: 0.0944 µM | Selectivity Ratio F3 [3]: 854

CN(C)c1ccc(-c2nc3c(s2)C(O)CNC3)cc1 (racemic) [Example 2, 2-(4-dimethylamino-phenyl)-4,5,6,7-tetrahydro[1,3]thiazolo[4,5-c]pyridin-7-ol]
IC50 [1]: 86.4 µM | IC50 [2]: 0.931 µM | Selectivity Ratio D8 [2]: 93 | IC50 [3]: 1.28 µM | Selectivity Ratio F3 [3]: 68

CN(C)c1ccc(-c2nc3c(s2)C(O)COC3)cc1 (centres unmarked) [Example 17, 2-[4-(dimethylamino)phenyl]-6,7-dihydro-4H-pyrano[3,4-d][1,3]thiazol-7-ol]
IC50 [1]: 51.1 µM | IC50 [2]: 1.12 µM | Selectivity Ratio D8 [2]: 46 | IC50 [3]: 1.53 µM | Selectivity Ratio F3 [3]: 33
